The assay relates to acute global cerebral ischemia in rats. Kind of assay: Acute global cerebral ischemia in rats, volume of cerebral infarction (nuclear magnetic resonance). It is filed as in vivo. Conditions: BZP 0.75, 3, 12 and 24 mg/kg; Br-NBP 10.5 mg/kg; NBP-K 9.6 mg/kg; vs model group. The source says:
2.7 The Protective Effect of BZP on Acute Global Cerebral Ischemia in Rats: […]

These results are taken from patent US20230398087A1, “APPLICATION OF BZP IN TREATMENT OF ISCHEMIC CARDIOVASCULAR AND CEREBRAL VASCULAR DISEASES” (priority 2020, published 2023).

Molecules are shown by their SMILES.

On to `CCCCC1OC(=O)c2cc(Br)ccc21` (centres unmarked) [Br-NBP, reference compound], for which the “volume of cerebral infarction” value was “significantly reduce”.

Take `CCCCC(O)c1ccccc1C(=O)[O-].[K+]` (centres unmarked) [NBP-K, reference compound]: the “volume of cerebral infarction” value is on record as “significantly reduce”.
